Where “and” joins values, the source holds several entries; their conditions need not be identical. Equal values may be shown once. Numbers after ± are expanded uncertainties.
Settings: for mass density: 100 kPa, Vibrating tube method; for mass density / viscosity: Liquid; for surface tension liquid-gas / viscosity: Surface laser light scattering (SLLS)

CCCCCCCC(C)C [2-methylnonane]
Settings | mass density | surface tension liquid-gas [mN/m] | viscosity [mPa·s]
283.15 K | 735.134 ± 0.9 kg/m3 | – | –
288.15 K | 731.326 ± 0.9 kg/m3 | – | –
293.15 K | 727.469 ± 0.89 kg/m3 | – | –
298.15 K | 723.54 ± 2.2 kg/m3 and 723.632 ± 0.89 kg/m3 | 21.45 ± 0.3 | 0.8268 ± 0.028
303.15 K | 719.96 ± 0.88 kg/m3 | – | –
308.15 K | 716.109 ± 0.88 kg/m3 | – | –
313.15 K | 712.275 ± 0.87 kg/m3 | – | –
318.15 K | 708.49 ± 0.87 kg/m3 | – | –
323.15 K | 704.14 ± 2.2 kg/m3 and 704.628 ± 0.86 kg/m3 | 19.65 ± 0.21 | 0.6035 ± 0.023
328.15 K | 700.722 ± 0.86 kg/m3 | – | –
333.15 K | 696.794 ± 0.85 kg/m3 | – | –
338.15 K | 692.852 ± 0.85 kg/m3 | – | –
343.15 K | 688.883 ± 0.84 kg/m3 | – | –
348.15 K | 684.896 ± 0.84 kg/m3 and 684.45 ± 2.1 kg/m3 | 17.76 ± 0.19 | 0.4629 ± 0.019
353.15 K | 680.89 ± 0.83 kg/m3 | – | –
358.15 K | 676.827 ± 0.83 kg/m3 | – | –
363.15 K | 672.811 ± 0.83 kg/m3 | – | –
373.15 K | 664.34 ± 2 kg/m3 | 15.75 ± 0.19 | 0.3623 ± 0.017
398.15 K | 643.46 ± 2 kg/m3 | 13.64 ± 0.19 | 0.2897 ± 0.015
423.15 K | 621.59 ± 1.9 kg/m3 | 11.72 ± 0.21 | 0.2365 ± 0.013
448.15 K | – | 9.9 ± 0.17 | 0.1989 ± 0.013

CCCCCC(C)CCC (stereo not drawn) [4-methylnonane]
Settings | mass density | surface tension liquid-gas [mN/m] | viscosity [mPa·s]
283.15 K | 739.362 ± 0.91 kg/m3 | – | –
288.15 K | 735.555 ± 0.9 kg/m3 | – | –
293.15 K | 731.743 ± 0.9 kg/m3 | – | –
298.15 K | 728.35 ± 2.2 kg/m3 and 727.929 ± 0.89 kg/m3 | 21.67 ± 0.28 | 0.7638 ± 0.027
303.15 K | 724.098 ± 0.89 kg/m3 | – | –
308.15 K | 720.253 ± 0.88 kg/m3 | – | –
313.15 K | 716.396 ± 0.88 kg/m3 | – | –
318.15 K | 712.527 ± 0.87 kg/m3 | – | –
323.15 K | 708.82 ± 2.2 kg/m3 and 708.634 ± 0.87 kg/m3 | 20.06 ± 0.26 | 0.5533 ± 0.021
328.15 K | 704.729 ± 0.86 kg/m3 | – | –
333.15 K | 700.808 ± 0.86 kg/m3 | – | –
338.15 K | 696.873 ± 0.85 kg/m3 | – | –
343.15 K | 692.918 ± 0.85 kg/m3 | – | –
348.15 K | 688.94 ± 0.84 kg/m3 and 689 ± 2.1 kg/m3 | 17.93 ± 0.19 | 0.4161 ± 0.018
353.15 K | 684.943 ± 0.84 kg/m3 | – | –
358.15 K | 680.922 ± 0.83 kg/m3 | – | –
363.15 K | 676.877 ± 0.83 kg/m3 | – | –
373.15 K | 668.81 ± 2.1 kg/m3 | 15.92 ± 0.2 | 0.3279 ± 0.016
398.15 K | 647.86 ± 2 kg/m3 | 13.77 ± 0.27 | 0.2644 ± 0.014
423.15 K | 626 ± 1.9 kg/m3 | 11.89 ± 0.13 | 0.2168 ± 0.013
448.15 K | – | 9.95 ± 0.14 | 0.1801 ± 0.012
